From patent publication US12681015B2, “Methods for predicting patient response to DMARDs” (Queen Mary University of London, priority 2019, dated 2026)
“Also recorded” adds a separate entry of the source.

What was measured:
[1] = system: inflammatory arthritis in wild type (WT) mice; assay: K/BxN serum inflammatory arthritis in wild type mice treated with MTX; type: in vivo
Procedure: (§1) Inflammatory arthritis was initiated in wild type (WT) and Alox15^−/− deficient mice by the administration of arthritogenic serum on days 0 and 2. […] Disease severity was assessed by measuring (A) disease activity using a 26-point clinical score (B) body weight and (C) paw edema. (D) Eight days post disease initiation joints were collected, leukocytes were liberated and the number of infiltrated leukocytes was determined using flow cytometry and fluorescently labelled antibodies. Results for A-C are mean±SEM and for D are percentage of vehicle n=7 mice per group. Results for D are representative of n=8 mice per group. Experiments were conducted on two distinct occasions. * p<0.05 vs Vehicle group for A-C using two-way ANOVA, for D using one-sample t test.
(§2) Inflammatory arthritis was initiated in wild type (WT) and Alox15^−/− mice by injecting K/BxN serum via intraperitoneal injection on days 0 and 2. […] Blood and joints were collected on day 8 and the concentrations of inflammatory eicosanoids in (A) plasma and (B) joints were determined using LC-MS/MS profiling.
(§3) Plasma was obtained from peripheral blood of healthy volunteers, patients and mouse following centrifugation at 1500×g for 10 min at room temperature. Paws were collected and immediately transferred to liquid nitrogen prior to homogenization in 1 ml ice cold MeOH and homogenized using a glass dounce. All samples for LC-MS/MS-based profiling were extracted using solid-phase extraction columns as in Walker, M. E., Souza, P. R., Colas, R. A. & Dalli, J. “13-Series resolvins mediate the leukocyte-platelet actions of atorvastatin and pravastatin in inflammatory arthritis.” FASEB J 31, 3636-3648 (2017), the contents of which are incorporated herein by reference. Prior to sample extraction, deuterated internal standards, representing each region in the chromatographic analysis (500 pg each) were added to facilitate quantification. Samples were kept at −20° C. for a minimum of 45 min to allow protein precipitation. Supernatants were subjected to solid phase extraction, methyl formate fraction collected, brought to dryness and suspended in phase (methanol/water, 1:1, vol/vol) for injection on a Shimadzu LC-20AD HPLC and a Shimadzu SIL-20AC autoinjector, paired with a QTrap 5500 or QTrap 6500 plus (Sciex). An Agilent Poroshell 120 EC-C18 column (100 mm×4.6 mm×2.7 μm) was kept at 50° C. and mediators eluted using a mobile phase consisting of methanol/water/acetic acid of 20:80:0.01 (vol/vol/vol) that was ramped to 50:50:0.01 (vol/vol/vol) over 0.5 min and then to 80:20:0.01 (vol/vol/vol) from 2 min to 11 min, maintained till 14.5 min and then rapidly ramped to 98:2:0.01 (vol/vol/vol) for the next 0.1 min. This was subsequently maintained at 98:2:0.01 (vol/vol/vol) for 5.4 min, and the flow rate was maintained at 0.5 ml/min. QTrap 5500 or QTrap 6500 plus were operated using a multiple reaction monitoring method as in Walker, M. E., Souza, P. R., Colas, R. A. & Dalli, J. “13-Series resolvins mediate the leukocyte-platelet actions of atorvastatin and pravastatin in inflammatory arthritis.” FASEB J 31, 3636-3648 (2017), the contents of which are incorporated herein by reference. […]

[2] = system: inflammatory arthritis in Alox15-/- mice; assay: K/BxN serum inflammatory arthritis in Alox15-/- mice treated with MTX; type: in vivo
Procedure: as §1, §2, §3

[3] = system: SPM formation in human peripheral blood; assay: Human whole blood incubation with MTX, plasma SPM by LC-MS/MS lipid mediator profiling; type: cell-based; details: MTX 100 nM, 37° C., 45 min
Procedure: Plasma was obtained by centrifugation and peripheral blood SPM concentrations were determined using LC-MS/MS based lipid mediator profiling. (A) OPLS-DA analysis of plasma SPM concentrations. Colored spherical areas display 95% confidence region of respective incubations. […] Results for A, B are representative of n=6 donors from three distinct experiments. […] Blood was then collected after 1 hour and SPM concentrations were determined using LC-MS/MS based lipid mediator profiling (D) oPLS-DA analysis of plasma SPM concentrations. Colored areas display 95% confidence region of respective incubations. […] Results are representative of n=4 mice per group and experiments were conducted on two distinct occasions.
Incubations were quenched and SPM were identified and quantified using LC-MS/MS-based lipid mediator profiling. Results are mean±SEM. n=6 volunteers per group.
Plasma was obtained from peripheral blood of healthy volunteers, patients and mouse following centrifugation at 1500×g for 10 min at room temperature. Paws were collected and immediately transferred to liquid nitrogen prior to homogenization in 1 ml ice cold MeOH and homogenized using a glass dounce. All samples for LC-MS/MS-based profiling were extracted using solid-phase extraction columns as in Walker, M. E., Souza, P. R., Colas, R. A. & Dalli, J. “13-Series resolvins mediate the leukocyte-platelet actions of atorvastatin and pravastatin in inflammatory arthritis.” FASEB J 31, 3636-3648 (2017), the contents of which are incorporated herein by reference. Prior to sample extraction, deuterated internal standards, representing each region in the chromatographic analysis (500 pg each) were added to facilitate quantification. Samples were kept at −20° C. for a minimum of 45 min to allow protein precipitation. Supernatants were subjected to solid phase extraction, methyl formate fraction collected, brought to dryness and suspended in phase (methanol/water, 1:1, vol/vol) for injection on a Shimadzu LC-20AD HPLC and a Shimadzu SIL-20AC autoinjector, paired with a QTrap 5500 or QTrap 6500 plus (Sciex). An Agilent Poroshell 120 EC-C18 column (100 mm×4.6 mm×2.7 μm) was kept at 50° C. and mediators eluted using a mobile phase consisting of methanol/water/acetic acid of 20:80:0.01 (vol/vol/vol) that was ramped to 50:50:0.01 (vol/vol/vol) over 0.5 min and then to 80:20:0.01 (vol/vol/vol) from 2 min to 11 min, maintained till 14.5 min and then rapidly ramped to 98:2:0.01 (vol/vol/vol) for the next 0.1 min. This was subsequently maintained at 98:2:0.01 (vol/vol/vol) for 5.4 min, and the flow rate was maintained at 0.5 ml/min. QTrap 5500 or QTrap 6500 plus were operated using a multiple reaction monitoring method as in Walker, M. E., Souza, P. R., Colas, R. A. & Dalli, J. “13-Series resolvins mediate the leukocyte-platelet actions of atorvastatin and pravastatin in inflammatory arthritis.” FASEB J 31, 3636-3648 (2017), the contents of which are incorporated herein by reference. Each lipid mediator was identified using established criteria including matching retention time to synthetic or authentic standards and at least 6 diagnostic ions (Walker, M. E., Souza, P. R., Colas, R. A. & Dalli, J. “13-Series resolvins mediate the leukocyte-platelet actions of atorvastatin and pravastatin in inflammatory arthritis.” FASEB J 31, 3636-3648 (2017), the contents of which are incorporated herein by reference).

[4] = MTX 25 mg/kg i.p. days 3, 5 and 7
[5] = Alox15-/- mice, MTX 25 mg/kg i.p. days 3, 5 and 7

CN(Cc1cnc2nc(N)nc(N)c2n1)c1ccc(C(=O)N[C@@H](CCC(=O)O)C(=O)O)cc1 [MTX, Methotrexate]
paw edema [1, 4]: decrease | weight loss [1, 4]: improvement | clinical scores ([1]; MTX 25 mg/kg i.p. days 3, 5 and 7, 26-point score): significant reduction | number of eosinophils, neutrophils, monocytes and macrophages recruited to the joint ([1]; day 8, flow cytometry): decrease | inflammatory eicosanoid concentrations ([1]; plasma and joints, day 8, LC-MS/MS): regulates; also recorded: reduction | disease activity [2, 5]: no longer regulated | weight loss [2, 5]: no longer regulated | peripheral blood and circulating eicosanoid concentrations ([2]; Alox15-/- mice, day 8, LC-MS/MS): lost and no longer regulated | leukocyte trafficking ([2]; Alox15-/- mice, day 8, flow cytometry): no longer regulated | protective actions of MTX ([2]; mice lacking the ALOX15 enzyme): lost | mediators from the DHA, n-3 DPA and EPA bioactive metabolomes including PDX, RvD1 and RvE3 [3]: upregulation | plasma SPM concentrations [3]: upregulates; also recorded: increase | plasma 4S,14S-diHDHA concentration, Mean ± SEM ([3]; n=6): 2.82 ± 0.56 | plasma 5S,15S-diHETE concentration, Mean ± SEM ([3]; n=6): 5.32 ± 0.43 | plasma 7S,14S-diHDHA concentration, Mean ± SEM ([3]; n=6): 0.00 ± 0.00 | plasma 10S,17S-diHDPA concentration, Mean ± SEM ([3]; n=6): 0.55 ± 0.16 | plasma 13,14-dehydro-15-oxo-LXA4 concentration, Mean ± SEM ([3]; n=6): 82.74 ± 32.78 | plasma 14-oxo-MaR1 concentration, Mean ± SEM ([3]; n=6): 0.00 ± 0.00 | plasma 14S-diHDPA concentration, Mean ± SEM ([3]; n=6): 2.04 ± 0.41 | plasma 15-oxo-LXA4 concentration, Mean ± SEM ([3]; n=6): 3.78 ± 0.56 | plasma 15R-LXB4 concentration, Mean ± SEM ([3]; n=6): 2.13 ± 0.45 | plasma 17R-PD1 concentration, Mean ± SEM ([3]; n=6): 0.96 ± 0.39 | plasma 17R-RvD1 concentration, Mean ± SEM ([3]; n=6): 7.50 ± 1.97 | plasma 17R-RvD3 concentration, Mean ± SEM ([3]; n=6): 2.68 ± 0.67 | plasma 22-OH-MaR1 concentration, Mean ± SEM ([3]; n=6): 18.44 ± 4.31 | plasma 22-OH-PD1 concentration, Mean ± SEM ([3]; n=6): 7.86 ± 2.61 | plasma LXA4 concentration, Mean ± SEM ([3]; n=6): 0.55 ± 0.10 | plasma LXB4 concentration, Mean ± SEM ([3]; n=6): 13.42 ± 2.93 | plasma MaR1 concentration, Mean ± SEM ([3]; n=6): 24.53 ± 3.12 | plasma MaR1n-3 DPA concentration, Mean ± SEM ([3]; n=6): 1.09 ± 0.29 | plasma MaR2 concentration, Mean ± SEM ([3]; n=6): 0.00 ± 0.00 | plasma MaR2n-3 DPA concentration, Mean ± SEM ([3]; n=6): 7.97 ± 0.87 | plasma PD1 concentration, Mean ± SEM ([3]; n=6): 2.11 ± 0.24 | plasma PD1n-3 DPA concentration, Mean ± SEM ([3]; n=6): 0.34 ± 0.10 | plasma PD2n-3 DPA concentration, Mean ± SEM ([3]; n=6): 3.01 ± 1.23 | plasma PDx concentration, Mean ± SEM ([3]; n=6): 1.55 ± 0.22 | plasma RvD1 concentration, Mean ± SEM ([3]; n=6): 9.09 ± 1.13 | plasma RvD1n-3 DPA concentration, Mean ± SEM ([3]; n=6): 5.43 ± 1.10 | plasma RvD2 concentration, Mean ± SEM ([3]; n=6): 0.32 ± 0.13 | plasma RvD2n-3 DPA concentration, Mean ± SEM ([3]; n=6): 3.58 ± 1.16 | plasma RvD3 concentration, Mean ± SEM ([3]; n=6): 3.57 ± 1.38 | plasma RvD4 concentration, Mean ± SEM ([3]; n=6): 1.44 ± 0.59 | plasma RvD5 concentration, Mean ± SEM ([3]; n=6): 1.05 ± 0.22 | plasma RvD5n-3 DPA concentration, Mean ± SEM ([3]; n=6): 1.26 ± 0.24 | plasma RvD6 concentration, Mean ± SEM ([3]; n=6): 1.07 ± 0.21 | plasma RvE1 concentration, Mean ± SEM ([3]; n=6): 1.15 ± 0.32 | plasma RvE2 concentration, Mean ± SEM ([3]; n=6): 3.82 ± 1.15 | plasma RvE3 concentration, Mean ± SEM ([3]; n=6): 4.49 ± 0.23 | plasma RvT1 concentration, Mean ± SEM ([3]; n=6): 9.18 ± 2.50 | plasma RvT2 concentration, Mean ± SEM ([3]; n=6): 1.63 ± 0.35 | plasma RvT3 concentration, Mean ± SEM ([3]; n=6): 0.60 ± 0.24 | plasma RvT4 concentration, Mean ± SEM ([3]; n=6): 0.36 ± 0.15
